The structures appear in SMILES notation.

The assay concerns the target MYC:TRRAP interaction (Homo sapiens, UniProt P01106+Q9Y4A5). The assay is described as follows: MYC:TRRAP in-cell luminescence complementation assay (NanoBiT; SmB-MYC 1-190 and TRRAP 2033-2283-LgB in HeLa cells). Type of assay: cell-based. On the procedure:
HeLa cells plated on Greiner 96-well TC-rated white plates with clear bottoms were used for the following measurements. Reverse transfections were carried out using LipoD293™ before cells were plated. A bluescript KS' plasmid (Addgene) was used as carrier DNA for transfections, and a pcDNA3.1 EGFP plasmid (ThermoFisher) was used as a fluorescence reporter. White light-reflecting film (USA Scientific) was used to cover the bottom of the plates for luminescence measurements. Black light-absorbing film was used to cover the top of the plates for fluorescence measurements. All measurements were taken on a SpectraMax i3 instrument (Molecular Devices).
Transfections were carried out with increasing DNA amounts (1-100 ng per well) of a CMV-driven LgB plasmid and SmB in excess or vice-versa. Background luminesce for the usable range and the amount of DNA needed for vast excess of LgB or SmB were noted. Next, complementation with vast excess either LgB or SmB was used to determine the expression of each of the indicated MYC and TRRAP constructs for a range of DNA amounts per well: 10-100 ng. An optimal ratio of DNA to equalize the expression of each MYC and TRRAP pair was calculated. Then, signal-to-noise ratios were calculated for the indicated MYC and TRRAP pairs, and the pair with the highest ratio was chosen. Finally, the chosen pair was used to determine the optimal DNA transfection mixture. It was determined to be 6.7 ng of a plasmid with a MYC construct, 60 ng of a plasmid with a TRRAP construct and 33.3 ng of the pcDNA 3.1 EGFP plasmid, for each well in a 96-well plate. Unless otherwise indicated, these were the ratios of DNA transfected for this type of assay.
HeLa cells were transfected as above using LipoD293™ with a mixture of SmB-MYC 1-190, TRRAP 2033-2283-LgB, and EGFP in CMV-driven plasmids at the same optimized ratio described above. Two days post-transfection, the media in each well was replaced with fresh media containing each compound from the NCI's sets at 25 μM. Cells were incubated for 2 h with each compound, and luminescence and fluorescence measurements were recorded for each well. Changes in luminescence were normalized to fluorescence. The following pre-plated compound sets were obtained from the NCI/DTP chemical repository and used for this screen:
These chemical sets were used to discover novel small-molecule inhibitors of the MYC:TRRAP complex. SmB-MYC 1-190, TRRAP 2033-2283-LgB, and EGFP were transfected into HeLa cells. Two days post-transfection, compounds were added to the media at 25 μM and cells were incubated for 2h. Luminescence and fluorescence were recorded for each well containing one of the compounds. Changes in luminescence measurements were normalized to fluorescence measurements.
Afterwards, only molecules that reduced luminescence levels to <50% RLU were considered. This set of 46 compounds were incubated at 10 μM with vector-expressing cells. Luminescence complementation was measured and repeated in triplicate measurements. In addition, HeLa cells expressing LgB and SmB alone were incubated with the same compounds to rule out potentially artificial results due to inhibition of luciferase or its complementation. Molecules that induces any significant reduction in luminescence (<0.6) during this control assay were not considered further. Of 2947 molecules, 17 were chosen for further testing and ordered from the NCI/DTP Open Chemical Repository. FIG. 16 describes these chosen compounds.
Using the luminescence assay above as a readout for the MYC:TRRAP interaction, we used a robotic liquid handler to evaluate 2987 additional compounds (25 μM). All primary hits were counter-screened for any activity against the luciferase enzyme itself and for any effects on the expression of the fusion proteins. We set a threshold of 50% inhibition to consider compounds further. Only 17 out of 2987 passed all these criteria (0.6%). […]

The mark [1] stands for this setting: Table 2, compounds with >80% similarity to compound 10 (NSC657456), 10 uM.
The mark [2] stands for this setting: Table 1, 46 primary hits at 10 uM, HeLa cells, triplicate measurements.
[3] abbreviates: Table 1, 46 primary hits at 10 uM, HeLa cells, triplicate measurements, 10 µM.

Sequence of MYC:TRRAP interaction (P01106 16-205): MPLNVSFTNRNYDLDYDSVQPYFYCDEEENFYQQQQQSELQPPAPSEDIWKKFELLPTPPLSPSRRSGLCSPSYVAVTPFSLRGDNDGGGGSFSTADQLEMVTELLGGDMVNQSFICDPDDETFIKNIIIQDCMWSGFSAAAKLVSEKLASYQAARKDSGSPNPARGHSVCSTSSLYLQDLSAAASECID
Sequence of MYC:TRRAP interaction (Q9Y4A5 2051-2301): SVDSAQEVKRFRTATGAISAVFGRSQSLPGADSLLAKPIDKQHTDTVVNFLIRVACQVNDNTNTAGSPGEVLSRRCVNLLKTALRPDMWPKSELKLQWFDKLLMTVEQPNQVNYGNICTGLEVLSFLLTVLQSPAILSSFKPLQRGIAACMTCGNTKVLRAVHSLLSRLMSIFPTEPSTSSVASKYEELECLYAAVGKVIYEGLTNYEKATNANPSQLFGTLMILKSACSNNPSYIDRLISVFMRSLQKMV

As for `N#CC(=N)/C(C#N)=N/c1c(O)[nH]c2ccccc12` [Compound 1017, N′-(2-hydroxy-1H-indol-3-yl)ethane-diimidoyl dicyanide], under setting [1], the “% Inhibition 10 uM” value turned out to be 89.13%.

Turning to `N=c1ccc(/N=N/c2ccc(O)cc2)c(N)[nH]1` [Compound 4, 4-[(2,6-diaminopyridin-3-yl)diazenyl]phenol], the “% Inhibition 10 uM” value under setting [2] is given as 30.35%. On the same count and under the same terms, the result for `COc1cc(O)c2c(c1)C(=O)c1cc3c(c(O)c1C2=O)C(OC1OC(C)C(O)C(O)C1OC)C(OC)C(C)(O)C3=O` (centres unmarked) [Compound 22, 4-(4,5-dihydroxy-3-methoxy-6-methyloxan-2-yl)oxy-2,5,7-trihydroxy-3,9-dimethoxy-2-methyl-3,4-dihydrotetracene-1,6,11-trione] reads 52.48%. For `NC(=O)/N=N/c1c(O)[nH]c2ccccc12` [Compound 107, (2-hydroxy-1H-indol-3-yl)iminourea], under setting [1], the “% Inhibition 10 uM” value was 112.6%. For `Cc1ccc2c(c1)C=C/C(=C\C=C1/C=CC(=O)c3ncccc31)N2C` [Compound 37, 5-[2-(1,6-dimethylquinolin-1-ium-2-yl)ethenyl]quinolin-8-ol], the “% Inhibition 10 uM” value under setting [2] amounted to 84.83%. Consider `Cc1ccc(/N=C(S)/N=N/c2c(O)[nH]c3ccccc23)cc1` [Compound 1036], for which, under setting [1], the “% Inhibition 10 uM” value was 86.98%. Same read-out and setting: next, `CCOC(=O)Cc1csc(/N=N/c2c(O)[nH]c3ccccc23)n1` [Compound 1026, ethyl 2-[2-[(2-hydroxy-1H-indol-3-yl)diazenyl]-1,3-thiazol-4-yl] acetate]: 59.51%; `N#CC(=C/N=C(S)/N=N/c1c(O)[nH]c2ccccc12)c1nc2ccccc2s1` (stereo in doubt) [Compound 1030, 1-[(E)-2-(1,3-benzothiazol-2-yl)-2-cyanoethenyl]-3-[(2-hydroxy-1H-indol-3-yl)imino] thiourea]: 48.26%. As for `N[C@@H](Cc1ccc2oc3cc(=O)c4ccccc4c-3nc2c1)C(=O)O.O=[N+]([O-])O` [Compound 36, (2S)-2-amino-3-(5-oxobenzo[a]pheno-xazin-10-yl)propanoic acid; nitric acid], the “% Inhibition 10 uM” value under setting [2] amounted to 73.39%. For the compound `O=C(/N=N/c1c(O)[nH]c2ccccc12)Nc1ccccc1` [Compound 1013, 1-[(2-hydroxy-1H-indol-3-yl)imino]-3-phenylurea], the “% Inhibition 10 uM” value under setting [1] is listed as 83.25%. Take `N=C1C=C(N)C(=O)c2nc(O)ccc21` [Compound 11, 7-amino-5-imino-1H-quinoline-2,8-dione]: the “% Inhibition 10 uM” value runs as follows: under setting [3], 46.89%; (Table 1, 46 primary hits at 10 uM, HeLa cells, triplicate measurements, listed as 43, 10 µM) 57.34%. Take `Oc1[nH]c2ccccc2c1/N=N/C(S)=N/c1ccccc1` [Compound 105, 1-[(2-hydroxy-1H-indol-3-yl)imino]-3-phenylthiourea]: the “% Inhibition 10 uM” value under setting [1] came to 65.25%. For `COC1=C(N)C(=O)c2nc(-c3nc(C(=O)O)c(C)c(-c4ccc(OC)c(OC)c4O)c3N)ccc2C1=O` [Compound 14, 5-amino-6-(7-amino-6-methoxy-5,8-dioxoquinolin-2-yl)-4-(2-hydroxy-3,4-dimethoxyphenyl)-3-methylpyridine-2-carboxylic acid], the “% Inhibition 10 uM” value under setting [2] was 40.78%. For the compound `COC(=O)c1nc(-c2ccc3c(n2)C(=O)C(N)=C(OC)C3=O)c(N)c(-c2ccc(OC)c(OC)c2O)c1C` [Compound 23, methyl 5-amino-6-(7-amino-6-methoxy-5,8-dioxoquinolin-2-yl)-4-(2-hydroxy-3,4-dimethoxyphenyl)-3-methylpyridine-2-carboxylate], the “% Inhibition 10 uM” value reads like this: under setting [3], 50.17%; (Table 1, 46 primary hits at 10 uM, HeLa cells, triplicate measurements, listed as 29, 10 µM) 60.1%.

For `COc1cc(/N=N/c2cccc(S(N)(=O)=O)c2)c2ccccc2c1N` [Compound 41, 3-[(4-amino-3-methoxy-naphthalen-1-yl)diazenyl] benzene-sulfonamide], the “% Inhibition 10 uM” value under setting [2] was determined as 78.97%. On to `N=C(/N=N/c1c(O)[nH]c2ccccc12)N[N+](=O)[O-]` [Compound 102, 1-[(2-hydroxy-1H-indol-3-yl)imino]-3-nitroguanidine], for which the “% Inhibition 10 uM” value under setting [1] was 100.4%. Take `Cc1cc2c(C(C)C)c(O)c(O)c(C=O)c2c(O)c1-c1c(C)cc2c(C(C)C)c(O)c(O)c(C=O)c2c1O` [Compound 31, 7-(8-formyl-1,6,7-trihydroxy-3-methyl-5-propan-2-ylnaphthalen-2-yl)-2,3,8-trihydroxy-6-methyl-4-propan-2-ylnaphthalene-1-carbaldehyde]: the “% Inhibition 10 uM” value under setting [2] is on record as 68.27%.

Turning to `Oc1[nH]c2ccccc2c1/N=N/C1=NCCCCN1` [Compound 1037, 3-(4,5,6,7-tetrahydro-1H-1,3-diazepin-2-yldiazenyl)-1H-indol-2-ol; hydroiodide], the “% Inhibition 10 uM” value under setting [1] was found to be 85.49%. As for `NC(=O)/N=N/c1c(O)n(O)c2ccccc12` [Compound 106, (1,2-dihydroxyindol-3-yl)iminourea], the “% Inhibition 10 uM” value under setting [1] is listed as 127.3%. With `Cc1ccccc1/N=N/c1c(O)[nH]c2ccccc12` [Compound 1010, 3-[(2-methylphenyl)diazenyl]-1H-indol-2-ol], under setting [1], the “% Inhibition 10 uM” value was determined as 94.76%. For `Cc1ccc(Cl)cc1NC(=O)c1cc2ccccc2cc1O` [Compound 9, N-(5-chloro-2-methylphenyl)-3-hydroxy-naphthalene-2-carboxamide], the “% Inhibition 10 uM” value under setting [2] amounted to 48.59%. Still for that read-out and setting: the result for `COc1c2c(cc3c1C1Oc4c(ccc(O)c4CC=C(C)C)C1CO3)OC(C)(C)C=C2` (centres unmarked) [Compound 45, 21-methoxy-17,17-dimethyl-5-(3-methylbut-2-enyl)-3,12,16-trioxapentacyclo [11.8.0.02,10.04, 9.015,20] henicosa-1(13),4(9),5,7, 14,18, 20-heptaen-6-ol] reads 85.82%; that for `COC(=O)c1cc2c(n1S(=O)(=O)c1ccc(C)cc1)C(=O)C(=O)c1[nH]cc(C(=O)OCc3ccccc3)c1-2` [Compound 21, 8-O-benzyl 2-O-methyl 3-(4-methylphenyl) sulfonyl-4,5-dioxo-6H-pyrrolo[3,2-e]indole-2,8-dicarboxylate], 39.88%; that for `CN(C)c1ccc(C=C2C=C(c3ccc4c(c3)CCCC4)OC2=O)cc1` (stereo in doubt) [Compound 46, (3Z)-3-[[4-(dimethylamino)phenyl]methylidene]-5-(5,6,7,8-tetrahydro-naphthalen-2-yl)furan-2-one], 96.48%. For the compound `Oc1[nH]c2ccccc2c1/N=N/C1=NCCN1` [Compound 1020, 3-(4,5-dihydro-1H-imidazol-2-yldiazenyl)-1H-indol-2-ol], under setting [1], the “% Inhibition 10 uM” value is listed as 91.72%. Same read-out and setting: next, `CN(C)C(=S)/N=N/c1c(O)[nH]c2ccccc12` [Compound 108]: 86.25%.

In the case of `O=C(/N=N/c1c(O)[nH]c2ccccc12)C(F)(F)F` [Compound 1019, 2,2,2-trifluoro-N-[(2-hydroxy-1H-indol-3-yl)imino] acetamide], under setting [1], the “% Inhibition 10 uM” value worked out at 82.34%. Regarding `O=C1c2ccccc2C(=O)c2sc(Nc3ccc(Cl)cc3)nc21` [Compound 28, 2-(4-chloroanilino)benzo [f][1,3] benzothiazole-4,9-dione], the “% Inhibition 10 uM” value under setting [2] was 66.32%. Still for that read-out and setting: the result for `Cc1nc(/N=N/c2ccccc2)[nH]c1/N=N/c1ccccc1` [Compound 16, (5-methyl-2-phenyldiazenyl-1H-imidazol-4-yl)-phenyldiazene] reads 62.4%. With `N=C(N)/N=N/c1c(O)[nH]c2ccccc12` [Compound 104, 1-[(2-hydroxy-1H-indol-3-yl)imino] guanidine], under setting [1], the “% Inhibition 10 uM” value worked out at 123.9%.

These data come from patent publication US20260216144A1, “TARGETING MB2 OF THE MYC ONCOGENE AND ITS INTERACTION WITH TRRAP IN CANCER” (priority 2019, published 2026).
